Source: ChEMBL document CHEMBL2417523, “One-pot microwave assisted synthesis of new 2-alkoxycarbonylmethylene-4-oxo-1,5-benzo-, naphtho-, and pyridodiazepines and assessment of their cytogenetic activity” (Eur J Med Chem, 2013)
Calls of active or inactive are those of the source. The calls are words filed in the database; no cut-off is given here.

Columns and labels:
Lymphocyte [1] = test: Cytoprotective activity against human lymphocytes assessed as reduction in sister chromatid exchange frequency after 72 hrs by fluorescence/Geimsa method; type: functional, cell-based
Lymphocyte [2] = test: Cytoprotective activity against human lymphocytes assessed as reduction in sister chromatid exchange frequency at 10 uM after 72 hrs by fluorescence/Geimsa method; type: functional, cell-based
[3] = Cytogenetic activity against human lymphocytes assessed as cytostatic activity measured as proliferative rate index at 10 uM after 72 hrs by fluorescence/Geimsa method; type: cell-based; details: lymphocyte

Structure (SMILES): COC(=O)/C=C1/CC(=O)Nc2cc(Cl)ccc2N1
- Activity (Lymphocyte [1]): Dose-dependent effect
- Activity (Lymphocyte [2]): Active
- Activity [3]: Toxic

Structure (SMILES): COC(=O)/C=C1/CC(=O)Nc2ccccc2N1
- Activity (Lymphocyte [1]): Dose-dependent effect

Structure (SMILES): COC(=O)/C=C1/CC(=O)Nc2cc(C)c(C)cc2N1
- Activity (Lymphocyte [1]): Dose-dependent effect
